Results: article PMC7614683, “A small molecule PI3Kα activator for cardioprotection and neuroregeneration” (Nature, 2023)
Read-outs that look alike come from different tables or passages of the source.

Columns and labels:
Test in all cases: SelectScreen Z-LYTE kinase activity assay (SI Table 6)
Type in all cases: biochemical
[1] = target: protein kinases of the Z-LYTE panel (Homo sapiens, UniProt P08581)
Method in brief: (§1)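 Percent effect values derive from SelectScreen Adapta, Lantha and Z-LYTE assays in which 1938 was present at 1 μM, spanning 133 protein kinases and 7 lipid kinases.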

[2] = target: protein kinases of the Z-LYTE panel (Homo sapiens, UniProt P08069)
Method in brief: as §1

[3] = target: protein kinases of the Z-LYTE panel (Homo sapiens, UniProt P24941)
Method in brief: as §1

[4] = target: protein kinases of the Z-LYTE panel (Homo sapiens, UniProt P07332)
Method in brief: as §1

[5] = target: protein kinases of the Z-LYTE panel (Homo sapiens, UniProt P09619)
Method in brief: as §1

[6] = target: protein kinases of the Z-LYTE panel (Homo sapiens, UniProt P23443)
Method in brief: as §1

[7] = target: protein kinases of the Z-LYTE panel (Homo sapiens, UniProt P49840)
Method in brief: as §1

[8] = target: protein kinases of the Z-LYTE panel (Homo sapiens, UniProt P07949)
Method in brief: as §1

[9] = target: T1, protein kinases of the Z-LYTE panel (Homo sapiens, UniProt O14920)
T1 sequence (O14920 1-756): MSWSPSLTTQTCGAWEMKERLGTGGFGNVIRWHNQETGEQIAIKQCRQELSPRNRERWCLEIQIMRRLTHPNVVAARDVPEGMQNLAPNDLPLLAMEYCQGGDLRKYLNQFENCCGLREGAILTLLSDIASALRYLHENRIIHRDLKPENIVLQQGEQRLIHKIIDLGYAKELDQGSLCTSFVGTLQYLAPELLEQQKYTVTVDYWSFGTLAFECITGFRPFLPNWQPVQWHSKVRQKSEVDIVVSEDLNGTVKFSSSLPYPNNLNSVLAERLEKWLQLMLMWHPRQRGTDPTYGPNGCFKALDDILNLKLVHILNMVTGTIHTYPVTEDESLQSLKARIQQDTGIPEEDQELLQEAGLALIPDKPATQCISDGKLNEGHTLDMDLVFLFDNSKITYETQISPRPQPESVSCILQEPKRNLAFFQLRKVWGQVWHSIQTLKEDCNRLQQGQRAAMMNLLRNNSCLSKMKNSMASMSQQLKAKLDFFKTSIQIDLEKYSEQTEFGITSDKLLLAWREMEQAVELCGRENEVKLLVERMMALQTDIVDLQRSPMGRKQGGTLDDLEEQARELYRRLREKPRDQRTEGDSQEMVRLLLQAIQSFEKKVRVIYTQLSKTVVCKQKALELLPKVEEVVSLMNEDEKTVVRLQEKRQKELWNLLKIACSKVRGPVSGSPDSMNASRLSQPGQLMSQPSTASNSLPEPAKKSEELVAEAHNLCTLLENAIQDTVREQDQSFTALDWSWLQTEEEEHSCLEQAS
Method in brief: as §1

Chain of protein kinases of the Z-LYTE panel (Homo sapiens, UniProt P23443) (P23443 whole entry): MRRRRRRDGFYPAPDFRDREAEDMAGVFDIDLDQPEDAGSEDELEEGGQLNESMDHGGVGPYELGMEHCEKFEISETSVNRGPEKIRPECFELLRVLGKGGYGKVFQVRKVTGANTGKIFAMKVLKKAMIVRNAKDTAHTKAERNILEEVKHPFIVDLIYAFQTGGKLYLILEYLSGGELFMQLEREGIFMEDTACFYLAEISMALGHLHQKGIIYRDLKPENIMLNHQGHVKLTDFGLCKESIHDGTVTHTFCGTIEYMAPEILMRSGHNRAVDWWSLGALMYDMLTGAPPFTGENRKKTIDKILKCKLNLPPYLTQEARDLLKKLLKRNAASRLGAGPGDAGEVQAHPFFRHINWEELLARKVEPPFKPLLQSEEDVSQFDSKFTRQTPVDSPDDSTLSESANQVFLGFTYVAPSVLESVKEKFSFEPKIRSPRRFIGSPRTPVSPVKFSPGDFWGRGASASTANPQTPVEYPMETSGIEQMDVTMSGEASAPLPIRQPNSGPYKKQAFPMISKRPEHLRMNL
Chain of protein kinases of the Z-LYTE panel (Homo sapiens, UniProt P07949) (P07949 29-1114): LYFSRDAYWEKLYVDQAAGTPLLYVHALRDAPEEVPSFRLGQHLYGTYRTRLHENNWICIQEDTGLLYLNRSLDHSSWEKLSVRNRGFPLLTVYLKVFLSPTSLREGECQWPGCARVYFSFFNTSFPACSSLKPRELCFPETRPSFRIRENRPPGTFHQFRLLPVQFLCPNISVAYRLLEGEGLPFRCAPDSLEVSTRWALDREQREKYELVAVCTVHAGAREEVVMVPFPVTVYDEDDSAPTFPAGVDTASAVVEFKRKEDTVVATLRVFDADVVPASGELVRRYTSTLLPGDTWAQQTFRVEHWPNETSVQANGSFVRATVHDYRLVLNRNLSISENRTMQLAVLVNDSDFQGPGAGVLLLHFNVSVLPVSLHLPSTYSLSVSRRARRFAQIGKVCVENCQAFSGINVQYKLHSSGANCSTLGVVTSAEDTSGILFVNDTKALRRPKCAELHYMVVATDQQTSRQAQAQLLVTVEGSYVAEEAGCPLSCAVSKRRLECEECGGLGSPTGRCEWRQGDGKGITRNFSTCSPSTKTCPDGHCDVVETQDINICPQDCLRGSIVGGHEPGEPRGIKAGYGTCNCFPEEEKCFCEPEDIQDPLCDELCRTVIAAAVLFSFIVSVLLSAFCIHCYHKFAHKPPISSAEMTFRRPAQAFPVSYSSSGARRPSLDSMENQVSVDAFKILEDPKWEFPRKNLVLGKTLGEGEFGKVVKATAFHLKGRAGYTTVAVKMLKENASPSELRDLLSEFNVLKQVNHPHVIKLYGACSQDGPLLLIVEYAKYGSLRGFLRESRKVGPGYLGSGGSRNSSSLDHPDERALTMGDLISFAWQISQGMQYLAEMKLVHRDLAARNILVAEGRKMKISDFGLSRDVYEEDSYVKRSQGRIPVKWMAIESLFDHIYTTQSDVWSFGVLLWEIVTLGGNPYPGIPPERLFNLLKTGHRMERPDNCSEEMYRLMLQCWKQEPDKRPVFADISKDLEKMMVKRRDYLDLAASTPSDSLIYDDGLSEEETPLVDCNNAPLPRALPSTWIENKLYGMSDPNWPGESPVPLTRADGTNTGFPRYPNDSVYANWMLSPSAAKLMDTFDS
Chain of protein kinases of the Z-LYTE panel (Homo sapiens, UniProt P08581) (P08581 25-1390): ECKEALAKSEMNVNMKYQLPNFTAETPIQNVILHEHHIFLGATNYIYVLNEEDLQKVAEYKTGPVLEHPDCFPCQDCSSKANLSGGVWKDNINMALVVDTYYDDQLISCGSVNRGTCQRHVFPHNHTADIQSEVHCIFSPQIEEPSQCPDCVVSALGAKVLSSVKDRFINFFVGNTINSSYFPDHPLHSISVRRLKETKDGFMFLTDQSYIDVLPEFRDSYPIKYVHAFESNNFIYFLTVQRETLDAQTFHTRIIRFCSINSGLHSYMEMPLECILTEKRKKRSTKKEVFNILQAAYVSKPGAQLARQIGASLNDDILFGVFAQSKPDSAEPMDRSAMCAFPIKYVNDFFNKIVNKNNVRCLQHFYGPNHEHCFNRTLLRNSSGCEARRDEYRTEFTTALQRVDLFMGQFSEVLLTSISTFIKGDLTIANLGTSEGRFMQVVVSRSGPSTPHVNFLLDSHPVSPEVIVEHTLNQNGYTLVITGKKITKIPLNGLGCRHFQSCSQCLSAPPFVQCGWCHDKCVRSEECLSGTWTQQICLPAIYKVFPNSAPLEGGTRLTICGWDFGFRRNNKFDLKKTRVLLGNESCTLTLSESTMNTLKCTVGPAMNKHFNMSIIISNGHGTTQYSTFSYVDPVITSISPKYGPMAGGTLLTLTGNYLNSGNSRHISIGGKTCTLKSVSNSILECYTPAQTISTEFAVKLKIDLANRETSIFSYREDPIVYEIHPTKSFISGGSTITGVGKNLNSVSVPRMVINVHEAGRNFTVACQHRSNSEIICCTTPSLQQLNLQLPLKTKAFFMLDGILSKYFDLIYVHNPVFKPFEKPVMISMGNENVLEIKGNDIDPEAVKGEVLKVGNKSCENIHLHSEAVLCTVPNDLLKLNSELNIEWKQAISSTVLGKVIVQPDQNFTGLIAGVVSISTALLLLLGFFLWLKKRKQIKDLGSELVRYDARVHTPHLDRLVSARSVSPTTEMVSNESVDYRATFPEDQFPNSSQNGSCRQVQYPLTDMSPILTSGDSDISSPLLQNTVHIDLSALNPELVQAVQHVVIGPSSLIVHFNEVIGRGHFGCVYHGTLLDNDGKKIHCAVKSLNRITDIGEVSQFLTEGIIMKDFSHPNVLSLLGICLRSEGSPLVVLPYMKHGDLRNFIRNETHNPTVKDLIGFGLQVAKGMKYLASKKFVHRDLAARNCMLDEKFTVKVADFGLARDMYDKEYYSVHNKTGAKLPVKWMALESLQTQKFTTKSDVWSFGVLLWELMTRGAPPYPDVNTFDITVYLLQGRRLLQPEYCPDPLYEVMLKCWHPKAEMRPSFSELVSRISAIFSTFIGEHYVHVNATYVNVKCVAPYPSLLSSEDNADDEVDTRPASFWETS
Chain of protein kinases of the Z-LYTE panel (Homo sapiens, UniProt P49840) (P49840 whole entry): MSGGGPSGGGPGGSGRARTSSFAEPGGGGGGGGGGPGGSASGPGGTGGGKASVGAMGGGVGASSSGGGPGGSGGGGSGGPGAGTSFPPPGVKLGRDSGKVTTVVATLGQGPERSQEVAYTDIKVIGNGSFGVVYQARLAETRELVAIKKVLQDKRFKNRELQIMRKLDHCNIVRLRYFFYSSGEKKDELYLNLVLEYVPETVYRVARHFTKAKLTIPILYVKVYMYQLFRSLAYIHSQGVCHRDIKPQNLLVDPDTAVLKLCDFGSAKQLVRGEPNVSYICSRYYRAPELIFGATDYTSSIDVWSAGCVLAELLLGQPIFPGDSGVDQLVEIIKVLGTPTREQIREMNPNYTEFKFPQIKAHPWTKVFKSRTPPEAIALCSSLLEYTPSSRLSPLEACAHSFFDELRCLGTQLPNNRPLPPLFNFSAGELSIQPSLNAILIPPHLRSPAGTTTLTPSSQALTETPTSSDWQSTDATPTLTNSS
Chain of protein kinases of the Z-LYTE panel (Homo sapiens, UniProt P07332) (P07332 whole entry): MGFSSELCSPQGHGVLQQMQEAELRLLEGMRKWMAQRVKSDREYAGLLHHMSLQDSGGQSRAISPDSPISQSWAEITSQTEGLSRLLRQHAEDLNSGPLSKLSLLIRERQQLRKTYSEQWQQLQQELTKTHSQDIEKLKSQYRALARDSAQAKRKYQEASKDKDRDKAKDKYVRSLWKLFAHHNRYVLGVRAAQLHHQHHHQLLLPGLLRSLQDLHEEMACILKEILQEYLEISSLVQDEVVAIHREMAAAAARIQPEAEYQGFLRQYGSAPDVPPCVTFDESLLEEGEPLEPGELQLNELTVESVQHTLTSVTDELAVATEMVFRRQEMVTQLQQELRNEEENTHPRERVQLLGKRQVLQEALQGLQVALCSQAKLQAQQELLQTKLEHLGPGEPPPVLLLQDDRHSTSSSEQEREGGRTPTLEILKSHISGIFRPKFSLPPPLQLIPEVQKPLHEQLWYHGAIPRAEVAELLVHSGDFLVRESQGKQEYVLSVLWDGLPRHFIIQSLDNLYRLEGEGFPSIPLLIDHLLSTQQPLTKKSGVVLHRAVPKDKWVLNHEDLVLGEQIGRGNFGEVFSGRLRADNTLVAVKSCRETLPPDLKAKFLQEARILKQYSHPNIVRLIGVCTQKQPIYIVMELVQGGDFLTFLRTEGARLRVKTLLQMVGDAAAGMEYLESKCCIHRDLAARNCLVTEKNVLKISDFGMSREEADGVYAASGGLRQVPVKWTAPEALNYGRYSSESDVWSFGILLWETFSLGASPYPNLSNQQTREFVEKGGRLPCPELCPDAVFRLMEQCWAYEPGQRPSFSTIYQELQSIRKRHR

`CCN1CCN(c2ccc(Nc3cc(Nc4cccc5c4N(C(C)=O)CC5)ccn3)cc2)CC1` [Compound 1938] showed an inhibition at 1 µM ([1]; read-out: % Inhibition Point 1) of 8%, an inhibition at 1 µM ([1]; read-out: % Inhibition Point 2) of 29% and an inhibition at 1 µM ([1]; read-out: % Inhibition mean) of 19%. For the same molecule, the inhibition at 1 µM ([2]; read-out: % Inhibition Point 1) was 5.5%, the inhibition at 1 µM ([2]; read-out: % Inhibition Point 2) was 5.33% and the inhibition at 1 µM ([2]; read-out: % Inhibition mean) was 5.41%. For the same molecule, the inhibition at 1 µM ([3]; read-out: % Inhibition Point 1) was 1.74%, the inhibition at 1 µM ([3]; read-out: % Inhibition Point 2) was 3.28% and the inhibition at 1 µM ([3]; read-out: % Inhibition mean) was 2.51%. For the same molecule, the inhibition at 1 µM ([4]; read-out: % Inhibition Point 1) was 7%, the inhibition at 1 µM ([4]; read-out: % Inhibition Point 2) was 8% and the inhibition at 1 µM ([4]; read-out: % Inhibition mean) was 7.57%. For the same molecule, the inhibition at 1 µM ([5]; read-out: % Inhibition Point 1) was 7%, the inhibition at 1 µM ([5]; read-out: % Inhibition Point 2) was 7% and the inhibition at 1 µM ([5]; read-out: % Inhibition mean) was 7%. The inhibition at 1 µM ([6]; read-out: % Inhibition Point 1) was 2.67%, the inhibition at 1 µM ([6]; read-out: % Inhibition Point 2) was -0.609% and the inhibition at 1 µM ([6]; read-out: % Inhibition mean) was 1%. The inhibition at 1 µM ([7]; read-out: % Inhibition Point 1) was 0.632%, the inhibition at 1 µM ([7]; read-out: % Inhibition Point 2) was 0.0257% and the inhibition at 1 µM ([7]; read-out: % Inhibition mean) was 0.329%. For the same molecule, the inhibition at 1 µM ([8]; read-out: % Inhibition Point 1) was 15%, the inhibition at 1 µM ([8]; read-out: % Inhibition Point 2) was 15% and the inhibition at 1 µM ([8]; read-out: % Inhibition mean) was 15%. The inhibition at 1 µM ([9]; read-out: % Inhibition Point 1) was 8.52%, the inhibition at 1 µM ([9]; read-out: % Inhibition Point 2) was 7% and the inhibition at 1 µM ([9]; read-out: % Inhibition mean) was 7.61%.
